From article PMC9851200, “Multiparameter phenotypic screening for endogenous TFEB and TFE3 translocation identifies novel chemical series modulating lysosome function” (Autophagy, 2022)

Experiments:
Format in all cases: binding
[1] = target: kinases (KINOMEscan panel) (Homo sapiens, UniProt P57059); conditions: kinase SIK1; NEW KINOMEscan
[2] = target: T1, kinases (KINOMEscan panel) (Homo sapiens, UniProt Q13873); conditions: kinase BMPR2; NEW KINOMEscan
T1 sequence (Q13873 27-1038): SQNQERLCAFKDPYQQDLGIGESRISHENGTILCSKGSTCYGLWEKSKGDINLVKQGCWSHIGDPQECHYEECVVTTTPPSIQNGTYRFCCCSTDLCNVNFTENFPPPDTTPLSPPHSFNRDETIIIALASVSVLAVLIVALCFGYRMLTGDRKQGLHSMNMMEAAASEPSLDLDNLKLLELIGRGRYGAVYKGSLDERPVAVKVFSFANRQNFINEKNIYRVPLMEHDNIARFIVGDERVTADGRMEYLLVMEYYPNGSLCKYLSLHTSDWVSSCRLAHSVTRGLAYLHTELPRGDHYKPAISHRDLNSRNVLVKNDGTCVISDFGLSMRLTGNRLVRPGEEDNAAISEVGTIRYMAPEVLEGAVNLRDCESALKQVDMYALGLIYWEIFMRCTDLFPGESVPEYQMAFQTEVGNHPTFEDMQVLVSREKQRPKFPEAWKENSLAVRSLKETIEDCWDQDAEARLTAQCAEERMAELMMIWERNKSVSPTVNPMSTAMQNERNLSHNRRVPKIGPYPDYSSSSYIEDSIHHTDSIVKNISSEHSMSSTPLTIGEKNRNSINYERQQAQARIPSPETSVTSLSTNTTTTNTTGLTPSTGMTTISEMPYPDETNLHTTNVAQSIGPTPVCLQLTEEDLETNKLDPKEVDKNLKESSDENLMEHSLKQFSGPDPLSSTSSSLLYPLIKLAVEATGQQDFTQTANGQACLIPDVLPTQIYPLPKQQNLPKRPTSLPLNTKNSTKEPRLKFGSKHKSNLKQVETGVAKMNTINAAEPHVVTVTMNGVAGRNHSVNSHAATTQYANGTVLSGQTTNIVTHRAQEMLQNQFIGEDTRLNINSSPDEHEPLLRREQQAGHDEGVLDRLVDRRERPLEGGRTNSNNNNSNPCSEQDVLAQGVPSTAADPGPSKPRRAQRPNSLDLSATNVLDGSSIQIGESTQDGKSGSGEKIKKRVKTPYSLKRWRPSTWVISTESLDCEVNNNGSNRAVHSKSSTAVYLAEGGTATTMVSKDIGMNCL

[3] = target: kinases (KINOMEscan panel) (Homo sapiens, UniProt P00533, DEL746-750); conditions: NEW KINOMEscan
[4] = target: kinases (KINOMEscan panel) (Homo sapiens, UniProt Q9UIK4); conditions: kinase DAPK2; NEW KINOMEscan
[5] = target: T2, kinases (KINOMEscan panel) (Homo sapiens, UniProt O14920)
T2 sequence (O14920 1-756): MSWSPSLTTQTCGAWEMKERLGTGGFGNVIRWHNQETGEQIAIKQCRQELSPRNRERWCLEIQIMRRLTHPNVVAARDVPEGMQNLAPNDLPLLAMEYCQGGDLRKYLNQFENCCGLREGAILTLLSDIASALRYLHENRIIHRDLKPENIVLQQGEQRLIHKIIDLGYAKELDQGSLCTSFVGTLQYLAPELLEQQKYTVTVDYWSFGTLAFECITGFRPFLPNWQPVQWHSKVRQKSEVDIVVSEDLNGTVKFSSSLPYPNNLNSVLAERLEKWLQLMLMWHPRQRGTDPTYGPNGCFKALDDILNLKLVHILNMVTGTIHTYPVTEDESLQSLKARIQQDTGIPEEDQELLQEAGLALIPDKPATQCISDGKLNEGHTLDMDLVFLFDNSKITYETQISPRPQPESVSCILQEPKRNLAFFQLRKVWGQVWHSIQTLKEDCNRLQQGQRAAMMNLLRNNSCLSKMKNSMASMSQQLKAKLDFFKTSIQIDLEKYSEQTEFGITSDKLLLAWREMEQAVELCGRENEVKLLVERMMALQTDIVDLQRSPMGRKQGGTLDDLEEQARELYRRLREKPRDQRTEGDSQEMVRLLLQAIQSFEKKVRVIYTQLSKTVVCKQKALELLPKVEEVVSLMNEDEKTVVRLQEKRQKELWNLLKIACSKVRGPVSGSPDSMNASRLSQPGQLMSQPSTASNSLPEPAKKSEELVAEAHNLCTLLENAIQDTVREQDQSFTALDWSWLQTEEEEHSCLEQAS

[6] = target: kinases (KINOMEscan panel) (Homo sapiens, UniProt P07949); conditions: kinase RET; NEW KINOMEscan
[7] = target: T3, kinases (KINOMEscan panel) (Homo sapiens, UniProt Q8WTQ7); conditions: kinase GRK7; NEW KINOMEscan
T3 sequence (Q8WTQ7 1-553): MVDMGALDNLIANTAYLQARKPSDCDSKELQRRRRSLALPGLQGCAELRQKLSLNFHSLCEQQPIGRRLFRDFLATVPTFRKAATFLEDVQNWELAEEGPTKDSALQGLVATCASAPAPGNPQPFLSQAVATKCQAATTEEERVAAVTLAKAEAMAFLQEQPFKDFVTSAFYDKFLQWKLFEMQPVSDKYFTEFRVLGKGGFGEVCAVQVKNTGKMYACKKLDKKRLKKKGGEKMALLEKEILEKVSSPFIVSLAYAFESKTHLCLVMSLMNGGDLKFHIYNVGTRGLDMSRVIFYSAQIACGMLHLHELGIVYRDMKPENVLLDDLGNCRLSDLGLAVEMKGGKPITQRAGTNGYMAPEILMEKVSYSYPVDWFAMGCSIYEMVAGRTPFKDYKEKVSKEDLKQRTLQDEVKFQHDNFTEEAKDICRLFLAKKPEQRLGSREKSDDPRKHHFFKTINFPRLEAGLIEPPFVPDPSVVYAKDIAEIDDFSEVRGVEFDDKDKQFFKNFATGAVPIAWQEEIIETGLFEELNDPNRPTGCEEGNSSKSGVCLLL

Chain of kinases (KINOMEscan panel) (Homo sapiens, UniProt P07949) (P07949 29-1114): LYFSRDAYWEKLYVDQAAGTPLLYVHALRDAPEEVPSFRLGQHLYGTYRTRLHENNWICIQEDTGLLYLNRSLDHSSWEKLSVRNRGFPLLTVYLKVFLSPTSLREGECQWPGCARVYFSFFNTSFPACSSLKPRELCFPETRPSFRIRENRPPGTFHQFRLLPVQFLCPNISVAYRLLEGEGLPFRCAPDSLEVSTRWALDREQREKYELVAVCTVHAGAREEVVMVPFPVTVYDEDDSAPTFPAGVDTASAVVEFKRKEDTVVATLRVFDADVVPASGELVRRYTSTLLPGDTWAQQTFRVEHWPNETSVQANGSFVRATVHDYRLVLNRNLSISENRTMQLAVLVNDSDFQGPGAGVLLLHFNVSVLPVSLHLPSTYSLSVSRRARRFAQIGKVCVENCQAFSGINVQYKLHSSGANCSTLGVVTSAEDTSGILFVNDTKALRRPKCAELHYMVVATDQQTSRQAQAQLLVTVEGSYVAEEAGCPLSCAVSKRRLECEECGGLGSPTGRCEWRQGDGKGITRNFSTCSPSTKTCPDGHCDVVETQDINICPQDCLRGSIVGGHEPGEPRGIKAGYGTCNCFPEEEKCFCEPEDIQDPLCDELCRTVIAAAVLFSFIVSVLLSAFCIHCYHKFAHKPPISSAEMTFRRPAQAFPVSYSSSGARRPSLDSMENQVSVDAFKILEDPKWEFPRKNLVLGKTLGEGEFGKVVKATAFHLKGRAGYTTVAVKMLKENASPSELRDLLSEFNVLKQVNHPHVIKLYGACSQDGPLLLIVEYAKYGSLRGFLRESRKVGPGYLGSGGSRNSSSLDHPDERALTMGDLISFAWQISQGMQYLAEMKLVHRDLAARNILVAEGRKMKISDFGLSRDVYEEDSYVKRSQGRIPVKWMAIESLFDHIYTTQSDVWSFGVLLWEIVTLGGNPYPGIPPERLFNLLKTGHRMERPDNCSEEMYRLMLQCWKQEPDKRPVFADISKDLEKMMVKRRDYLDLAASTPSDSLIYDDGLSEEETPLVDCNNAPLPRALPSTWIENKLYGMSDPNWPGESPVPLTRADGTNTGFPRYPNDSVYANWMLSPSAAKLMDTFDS
Chain of kinases (KINOMEscan panel) (Homo sapiens, UniProt Q9UIK4) (Q9UIK4 whole entry): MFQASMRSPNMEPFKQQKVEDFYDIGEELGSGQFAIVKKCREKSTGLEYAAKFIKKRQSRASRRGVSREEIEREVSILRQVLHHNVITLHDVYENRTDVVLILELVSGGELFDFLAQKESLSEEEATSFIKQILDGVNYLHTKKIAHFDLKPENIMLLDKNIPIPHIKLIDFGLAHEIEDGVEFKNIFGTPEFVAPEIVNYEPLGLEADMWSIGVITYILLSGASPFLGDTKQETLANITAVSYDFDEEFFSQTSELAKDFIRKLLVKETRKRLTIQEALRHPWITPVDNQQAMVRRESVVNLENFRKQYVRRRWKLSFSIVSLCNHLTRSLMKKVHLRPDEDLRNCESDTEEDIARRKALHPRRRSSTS
Chain of kinases (KINOMEscan panel) (Homo sapiens, UniProt P57059) (P57059 whole entry): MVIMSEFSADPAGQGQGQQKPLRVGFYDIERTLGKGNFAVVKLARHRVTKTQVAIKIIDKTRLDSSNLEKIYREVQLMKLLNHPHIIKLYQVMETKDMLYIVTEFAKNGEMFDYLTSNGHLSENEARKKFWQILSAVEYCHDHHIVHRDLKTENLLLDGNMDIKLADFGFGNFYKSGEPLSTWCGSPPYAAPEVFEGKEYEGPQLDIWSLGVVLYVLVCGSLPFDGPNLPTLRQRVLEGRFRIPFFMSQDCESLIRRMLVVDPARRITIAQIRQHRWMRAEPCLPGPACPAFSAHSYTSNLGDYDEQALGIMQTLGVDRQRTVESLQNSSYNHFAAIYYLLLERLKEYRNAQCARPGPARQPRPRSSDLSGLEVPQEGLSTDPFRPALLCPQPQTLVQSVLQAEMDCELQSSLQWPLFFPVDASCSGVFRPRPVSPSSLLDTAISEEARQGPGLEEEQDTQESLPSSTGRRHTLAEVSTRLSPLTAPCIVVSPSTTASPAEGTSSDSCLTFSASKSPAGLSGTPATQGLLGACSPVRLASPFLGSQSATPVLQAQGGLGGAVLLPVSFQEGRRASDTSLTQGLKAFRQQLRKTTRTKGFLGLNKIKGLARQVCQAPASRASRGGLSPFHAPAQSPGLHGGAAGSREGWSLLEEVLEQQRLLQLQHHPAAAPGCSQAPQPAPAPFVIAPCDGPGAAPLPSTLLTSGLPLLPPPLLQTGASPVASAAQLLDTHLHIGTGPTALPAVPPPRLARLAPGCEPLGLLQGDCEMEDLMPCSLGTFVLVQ
Chain of kinases (KINOMEscan panel) (Homo sapiens, UniProt P00533, DEL746-750) (P00533 with tags, fused parts or gaps DEL746-750): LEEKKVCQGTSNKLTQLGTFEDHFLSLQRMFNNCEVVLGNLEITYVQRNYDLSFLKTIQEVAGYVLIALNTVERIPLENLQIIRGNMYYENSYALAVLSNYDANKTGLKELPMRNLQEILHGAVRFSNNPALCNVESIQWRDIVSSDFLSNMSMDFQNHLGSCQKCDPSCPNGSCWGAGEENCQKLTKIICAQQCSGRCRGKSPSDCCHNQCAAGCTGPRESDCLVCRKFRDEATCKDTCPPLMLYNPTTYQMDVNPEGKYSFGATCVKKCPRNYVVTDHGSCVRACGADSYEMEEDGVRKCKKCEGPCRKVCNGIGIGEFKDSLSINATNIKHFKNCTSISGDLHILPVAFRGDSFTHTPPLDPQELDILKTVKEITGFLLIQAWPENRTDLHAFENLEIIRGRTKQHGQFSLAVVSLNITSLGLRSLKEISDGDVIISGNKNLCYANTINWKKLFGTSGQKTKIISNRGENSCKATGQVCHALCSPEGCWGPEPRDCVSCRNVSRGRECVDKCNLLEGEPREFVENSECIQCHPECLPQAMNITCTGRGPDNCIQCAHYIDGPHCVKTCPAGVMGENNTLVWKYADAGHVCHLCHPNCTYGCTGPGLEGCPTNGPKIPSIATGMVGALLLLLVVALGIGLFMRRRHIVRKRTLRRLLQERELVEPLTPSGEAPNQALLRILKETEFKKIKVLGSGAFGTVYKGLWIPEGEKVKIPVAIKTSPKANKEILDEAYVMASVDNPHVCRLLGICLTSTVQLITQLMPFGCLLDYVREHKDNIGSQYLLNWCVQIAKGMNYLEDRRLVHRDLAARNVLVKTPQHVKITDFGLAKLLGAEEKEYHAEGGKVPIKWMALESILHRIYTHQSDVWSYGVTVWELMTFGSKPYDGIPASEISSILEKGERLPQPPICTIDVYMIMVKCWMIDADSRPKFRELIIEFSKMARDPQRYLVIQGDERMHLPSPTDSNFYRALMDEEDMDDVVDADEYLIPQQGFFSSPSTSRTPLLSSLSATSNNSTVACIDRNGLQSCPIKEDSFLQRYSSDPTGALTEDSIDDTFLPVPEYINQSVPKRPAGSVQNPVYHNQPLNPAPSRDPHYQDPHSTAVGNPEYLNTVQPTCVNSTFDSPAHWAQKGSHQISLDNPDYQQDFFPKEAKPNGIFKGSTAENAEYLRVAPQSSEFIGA

| Compound | KINOMEscan SIK1 [1] | KINOMEscan BMPR2 [2] | KINOMEscan EGFR(E746-A750del) [3] | KINOMEscan DAPK2 [4] | KINOMEscan IKBKB/IKK-beta [5] | KINOMEscan RET [6] | KINOMEscan GRK7 [7] |
| --- | --- | --- | --- | --- | --- | --- | --- |
| Cc1cccc(-c2nc(N(C)c3ccc4ncsc4c3)c3ccccc3n2)n1 [NK-161] | 12 | 18 | 21 | 0 | 25 | 0 | 5 |
| Cc1cccc(-c2nc(Nc3ccc4nn(C)cc4c3)c3ccccc3n2)n1 [NK167] | 1 | 0 | 15 | 0 | 5 | 0 | 0 |
